Assay results from patent publication US10932472B2, “Coffee extract and its agrochemical use against plant pathogens” (KAMAD KNOWLEDGE SOLUTIONS SL, priority 2013, dated 2021).

Experiments:
Details in all cases: in vitro conditions
[1] = tested on: coffee leaf rust uredospores; assay: In vitro germination of coffee leaf rust uredospores (laboratory tests 2013); format: cell-based, Hemileia vastarix
Experimental: A laboratory methodology to understand the mode of action of PA1 (1%) was developed. The efficacy was performed using coffee leaf rust uredospores, collected in the field.

Botrytis cinerea = assay: In vitro inhibition of mycelial growth on amended PDA media; format: cell-based
Experimental: (§1) Additionally, an in vitro efficacy test was performed in order to determine the effect of PA5 against other Phytopathogens. Each pathogen strain was exposed to 0.5 and 2 cc/l, amended to PDA media. The inhibition percentage was evaluated against the control during 7 days.

Collectotrichum sp = assay: as above; format: cell-based
Experimental: as §1

Phytophthora capcisi = assay: as above; format: cell-based
Experimental: as §1

For O=C(O)c1ccc(O)c(O)c1 [PA, 3,4-dihydroxybenzoic acid], the “concentration with direct fungicide action on uredospores germination” value [1] was 0.25 mg/mL, the growth inhibition (Botrytis cinerea) was “inhibits the growth” and the growth inhibition (Collectotrichum sp) was “inhibits the growth”. For the same compound, the growth inhibition (Phytophthora capcisi) was “inhibits the growth”.
